Assay results taken from patent EP4813463A2, “TYK2 INHIBITORS AND COMPOSITIONS AND METHODS THEREOF” (Lynk Pharmaceuticals Co. Ltd., priority 2023, dated 2024).
Read-outs that look alike come from different tables or passages of the source.

Key:
[1] = system: Ba/F3-FL-TYK2-P760L cells; assay: Anti-proliferative assay in engineered Ba/F3 cells (Cell-Titer Glo, 72 h); assay type: cell-based; settings: Mus musculus, concentration that causes 50% growth inhibition, read-out: Baf3-FL-T2P760L
Method: Dimerization domain of Tel protein fused with JAK kinase domain was permanently transduced into Ba/F3 cells, whose proliferation is dependent on JAK activity in the absence of IL-3 induction. These engineered Ba/F3-FL-TYK2-P760L cells were used to monitor JAK inhibitory activities of the compounds in the cellular. Ba/F3 cells were cultured in RPMI-1640 (Corning) containing 10% fetal bovine serum. Cells were seeded at 2000/well of white flat bottom 96-well plates. The well containing medium only was used as background control. After 24h growth, cells were treated with compounds. The test compounds were dissolved in DMSO to a stock concentration of 20 mM. 3-fold serially diluted compounds for 9 concentrations with top concentration of 20 µM was added into the each well. The final DMSO concentration was 0.1%. The cells continued to grow at 37°C in 5% CO2 for 72 h after compound treatment. The viability was measured by cellular ATP determination using the Cell-Titer Glo luciferase reagent (Promega). The Luminescence value was recorded by a multi-label reader Envision (PerkinElmer). Inhibition Rate was calculated relative to vehicle (DMSO) treated control wells using following formula: % Inhibition = 100−(RLU_compound−RLU_blank)/(RLU_control−RLU_blank) × 100% [formula] wherein • RLU_compound = the relative light unit of cells treated with test compounds • RLU_blank = the relative light unit of medium with DMSO only • RLU_control = the relative light unit of cells treated with DMSO only
Table 4. Ba/F3-FL-TYK2-P760L Cells IC50 Values of Exemplary Compounds

[2] = target: T1, TYK2-JH2 domain (Homo sapiens, UniProt P29597); assay: Binding activity test for JH2 domain of TYK2 (Tb-antibody/tracer FRET)
T1 construct: JAK1-JH2 domain or TYK2-JH2 domain enzyme in assay buffer
Method: Binding Activity test for JH2 domain of JAK1 and TYK2 […] Add 8μL/well in echo source plate, echo will add 75nL/well with 3-fold serial dilution for 11 points in assay plate. 75nL DMSO for high control and low control. […] For low control, add 5μL/well assay buffer. And then spin down at 1000rpm and centrifuge for 30 seconds. After enzyme system prepared, add 5μL of Tb-antibody solution into each well of assay plate. Spin down at 1000 rpm and centrifuge for 30sec. After Tb-antibody added, also add 5μL of tracer into the assay plate. Spin down at 1000rpm and centrifuge for 30sec. Incubate for […] at 25°C firstly and then continue to incubate the plate at 4°C overnight. Read by envision in FRET mode. The Luminescence value was recorded by a multi-label reader Envision (PerkinElmer). […] Table 2. IC50 on JH2 domain activity (nM)

[3] = BaF3, 72 h, 72 h compound treatment
[4] = JH2 domain enzyme; 60 min at 25°C, then 4°C overnight; read-out: TYK2 JH2 Binding IC50

T1 sequence (P29597 589-875 limits assumed): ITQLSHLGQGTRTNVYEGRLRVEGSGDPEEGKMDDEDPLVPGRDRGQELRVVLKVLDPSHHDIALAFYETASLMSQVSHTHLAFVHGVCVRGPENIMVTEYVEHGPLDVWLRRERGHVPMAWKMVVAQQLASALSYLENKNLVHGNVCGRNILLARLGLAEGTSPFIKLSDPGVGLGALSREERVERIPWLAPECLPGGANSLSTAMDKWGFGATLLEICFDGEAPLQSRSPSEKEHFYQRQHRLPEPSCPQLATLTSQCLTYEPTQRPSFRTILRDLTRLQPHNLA

Compound | IC50 [1, 3] [nM] | IC50 [2, 4] [nM] | IC50 ([1]; BaF3, 72 h compound treatment) [nM] | IC50 ([2]; read-out: TYK2 JH2 Binding IC50; JH2 domain enzyme; 60 min at 25°C, then 4°C overnight) [nM]
[2H]C([2H])([2H])Oc1c([C@@H](OC)C(F)(F)F)ccc2c1c(Nc1cc(NC(=O)C3CC3)ncc1C(=O)OC)nn2C [Example 120B, Methyl (R)-6-(cyclopropanecarboxamido)-4-((4-(methoxy-d3)-1-methyl-5-(2,2,2-trifluoro-1-methoxyethyl)-1H-indazol-3-yl)amino)nicotinate] | 107 | 0.442 |  | 
COC(=O)c1cnc(NC(=O)[C@@H]2C[C@@H]2F)cc1Nc1nn(C)c2ccc(C(O)C(F)(F)F)c(OC)c12 (stereo partly drawn) [Example 122, Methyl 6-((1S,2S)-2-fluorocyclopropane-1-carboxamido)-4-((4-methoxy-1-methyl-5-(2,2,2-trifluoro-1-hydroxyethyl)-1H-indazol-3-yl)amino) nicotinate] | 1.16 | 0.178 |  | 
[2H]C([2H])([2H])CC(=O)c1cnc(NC(=O)C2CC2)cc1Nc1nn(C)c2ccc(C#N)c(OC)c12 [Example 127, N-(4-((5-cyano-4-methoxy-1-methyl-1H-indazol-3-yl)amino)-5-(propanoyl-3,3,3-d3)pyridin-2-yl)cyclopropanecarboxamide] | 52.3 | 0.256 |  | 
COC(=O)c1cnc(NC(=O)C2CC2)cc1Nc1nn(C)c2ccc(C(O)C3(F)CC3)c(OC)c12 (stereo not drawn) [Example 128, Methyl 6-(cyclopropanecarboxamido)-4-((5-((1-fluorocyclopropyl)(hydroxy)methyl)-4-methoxy-1-methyl-1H-indazol-3-yl)amino)nicotinate] | 17.3 | 0.26 |  | 
C/C=C(\F)c1cnc(NC(=O)C2CC2)cc1Nc1nn(C)c2ccc(C(O)C(F)(F)F)c(OC)c12 (stereo not drawn) [Example 130, (Z)-N-(5-(1-fluoroprop-1-en-1-yl)-4-((4-methoxy-1-methyl-5-(2,2,2-trifluoro-1-hydroxyethyl)-1H-indazol-3-yl)amino)pyridin-2-yl)cyclopropanecarboxamide] | 157 | 0.688 |  | 
[2H]C([2H])([2H])CC(=O)c1cnc(NC(=O)C2CC2)cc1Nc1nn(C)c2ccc(COC)c(OC)c12 [Example 132, N-(4-((4-methoxy-5-(methoxymethyl)-1-methyl-1H-indazol-3-yl)amino)-5-(propanoyl-3,3,3-d3)pyridin-2-yl)cyclopropanecarboxamide] | 25.9 | 0.174 |  | 
COCc1ccc2c(c(Nc3cc(NC(=O)C4CC4)ncc3C(=O)OC)nn2C)c1OC [Example 133, Methyl 6-(cyclopropanecarboxamido)-4-((4-methoxy-5-(methoxymethyl)-1-methyl-1H-indazol-3-yl)amino)nicotinate] | 53.3 | 0.288 |  | 
COC(=O)c1cnc(NC(=O)C2CC2)cc1Nc1nn(C)c2ccc(Cl)c(OC)c12 [Example 137, Methyl 4-((5-chloro-4-methoxy-1-methyl-1H-indazol-3-yl)amino)-6-(cyclopropanecarboxamido)nicotinate] | 99.8 | 0.377 |  | 
COC(=O)c1cnc(Nc2ccc(F)cn2)cc1Nc1nn(C)c2ccc(C(OC)C(F)(F)F)c(OC)c12 (stereo not drawn) [Example 142, Methyl 6-((5-fluoropyridin-2-yl)amino)-4-((4-methoxy-1-methyl-5-(2,2,2-trifluoro-1-methoxyethyl)-1H-indazol-3-yl)amino)nicotinate] | 12 | 0.185 |  | 
COC(=O)c1cnc(NC(=O)C2CC2)cc1Nc1nn(C)c2ccc(CC#N)c(OC)c12 [Example 145, Methyl 4-((5-(cyanomethyl)-4-methoxy-1-methyl-1H-indazol-3-yl)amino)-6-(cyclopropanecarboxamido)nicotinate] | 15.2 | 0.151 |  | 
[2H]C([2H])([2H])CC(=O)c1cnc(NC(=O)C2CC2)cc1Nc1nn(C)c2ccc(Cl)c(OC)c12 [Example 147, N-(4-((5-chloro-4-methoxy-1-methyl-1H-indazol-3-yl)amino)-5-(propanoyl-3,3,3-d3)pyridin-2-yl)cyclopropanecarboxamide] | 23.8 | 0.146 |  | 
[2H]C([2H])([2H])CC(=O)c1cnc(NC(=O)C2CC2)cc1Nc1nn(C)c2ccc(C(OC)C3(F)CC3)c(OC)c12 (stereo not drawn) [Example 150, N-(4-((5-((1-fluorocyclopropyl)(methoxy)methyl)-4-methoxy-1-methyl-1H-indazol-3-yl)amino)-5-(propanoyl-3,3,3-d3)pyridin-2-yl)cyclopropanecarboxamide] | 32.7 | 0.154 |  | 
[2H]C([2H])([2H])O[C@@H](c1ccc2c(c(Nc3cc(NC(=O)C4CC4)ncc3C(=O)NC)nn2C)c1OC)C(F)(F)F [Example 151, (5)-6-(cyclopropanecarboxamido)-4-((4-methoxy-1-methyl-5-(2,2,2-trifluoro-1-(methoxy-d3)ethyl)-1H-indazol-3-yl)amino)-N-methylnicotinamide] |  |  | 0.213 | 0.053
CCC(=O)c1cnc(NC(=O)C2CC2)nc1Nc1cccc(-c2cnn(C)n2)c1OC [Example 158, N-(4-((2-methoxy-3-(2-methyl-2H-1,2,3-triazol-4-yl)phenyl)amino)-5-propionylpyrimidin-2-yl)cyclopropanecarboxamide] | 68.4 | 0.496 |  | 

The remaining molecules from weak to strong by IC50 [1, 3], led by results:

IC50 [1, 3] [nM] | IC50 [2, 4] [nM] | Compound | IC50 ([1]; BaF3, 72 h compound treatment) [nM] | IC50 ([2]; read-out: TYK2 JH2 Binding IC50; JH2 domain enzyme; 60 min at 25°C, then 4°C overnight) [nM]
7.08 | 0.091 | COC(=O)c1cnc(NC(=O)C2CC2)cc1Nc1nn(C)c2ccc(CC(F)(F)F)c(OC)c12 [Example 148, Methyl 6-(cyclopropanecarboxamido)-4-((4-methoxy-1-methyl-5-(2,2,2-trifluoroethyl)-1H-indazol-3-yl)amino)nicotinate] |  | 
4.65 | 0.188 | COC(=O)c1cnc(NC(=O)[C@@H]2C[C@@H]2F)cc1Nc1nn(C)c2ccc(C(OC)C(C)(F)F)c(OC)c12 (stereo partly drawn) [Example 116, Methyl 4-((5-(2,2-difluoro-1-methoxypropyl)-4-methoxy-1-methyl-1H-indazol-3-yl)amino)-6-((1S,2S)-2-fluorocyclopropane-1-carboxamido)nicotinate] |  | 
2.71 | 0.089 | [2H]C([2H])([2H])Oc1c([C@H](OC)C(F)(F)F)ccc2c1c(Nc1cc(NC(=O)C3CC3)ncc1C(=O)OC)nn2C [Example 120A, Methyl (S)-6-(cyclopropanecarboxamido)-4-((4-(methoxy-d3)-1-methyl-5-(2,2,2-trifluoro-1-methoxyethyl)-1H-indazol-3-yl)amino)nicotinate] |  | 
1.41 | 0.466 | CCC(F)(F)c1cnc(NC(=O)C2CC2)cc1Nc1nn(C)c2ccc(C(O)C(F)(F)F)c(OC)c12 (stereo not drawn) [Example 129, N-(5-(1,1-difluoropropyl)-4-((4-methoxy-1-methyl-5-(2,2,2-trifluoro-1-hydroxyethyl)-1H-indazol-3-yl)amino)pyridin-2-yl)cyclopropanecarboxamide] |  | 
0.327 | 0.07 | [2H]C([2H])([2H])NC(=O)c1nnc(NC(=O)C2CC2)cc1Nc1nn(C)c2ccc([C@H](OC([2H])([2H])[2H])C(F)(F)F)c(OC)c12 [Example 135, (S)-6-(cyclopropanecarboxamido)-4-((4-methoxy-1-methyl-5-(2,2,2-trifluoro-1-(methoxy-d3)ethyl)-1H-indazol-3-yl)amino)-N-(methyl-d3)pyridazine-3-carboxamide] |  | 
0.284 | 0.071 | [2H]C([2H])([2H])NC(=O)c1cnc(NC(=O)C2CC2)cc1Nc1nn(C)c2ccc([C@H](OC)C(F)(F)F)c(OC([2H])([2H])[2H])c12 [Example 152, (S)-6-(cyclopropanecarboxamido)-4-((4-(methoxy-d3)-1-methyl-5-(2,2,2-trifluoro-1-methoxyethyl)-1H-indazol-3-yl)amino)-N-(methyl-d3)nicotinamide] |  | 
0.235 | 0.055 | [2H]C([2H])([2H])NC(=O)c1cnc(NC(=O)C2CC2)cc1Nc1nn(C([2H])([2H])[2H])c2ccc([C@H](OC)C(F)(F)F)c(OC)c12 [Example 153, (S)-6-(cyclopropanecarboxamido)-4-((4-methoxy-1-(methyl-d3)-5-(2,2,2-trifluoro-1-methoxyethyl)-1H-indazol-3-yl)amino)-N-(methyl-d3)nicotinamide] |  | 
